Experimental findings from patent US11339128B2 (Firmenich Incorporated, priority 2014, dated 2022) are described below.

Molecules are shown by their SMILES. Where a name gives a salt, the structure may show the parent alone.

For the test, the target named is T1, T1R2/T1R3 taste receptor (Homo sapiens, UniProt Q7RTX0+Q8TE23).
T1 sequence (Q8TE23 20-839): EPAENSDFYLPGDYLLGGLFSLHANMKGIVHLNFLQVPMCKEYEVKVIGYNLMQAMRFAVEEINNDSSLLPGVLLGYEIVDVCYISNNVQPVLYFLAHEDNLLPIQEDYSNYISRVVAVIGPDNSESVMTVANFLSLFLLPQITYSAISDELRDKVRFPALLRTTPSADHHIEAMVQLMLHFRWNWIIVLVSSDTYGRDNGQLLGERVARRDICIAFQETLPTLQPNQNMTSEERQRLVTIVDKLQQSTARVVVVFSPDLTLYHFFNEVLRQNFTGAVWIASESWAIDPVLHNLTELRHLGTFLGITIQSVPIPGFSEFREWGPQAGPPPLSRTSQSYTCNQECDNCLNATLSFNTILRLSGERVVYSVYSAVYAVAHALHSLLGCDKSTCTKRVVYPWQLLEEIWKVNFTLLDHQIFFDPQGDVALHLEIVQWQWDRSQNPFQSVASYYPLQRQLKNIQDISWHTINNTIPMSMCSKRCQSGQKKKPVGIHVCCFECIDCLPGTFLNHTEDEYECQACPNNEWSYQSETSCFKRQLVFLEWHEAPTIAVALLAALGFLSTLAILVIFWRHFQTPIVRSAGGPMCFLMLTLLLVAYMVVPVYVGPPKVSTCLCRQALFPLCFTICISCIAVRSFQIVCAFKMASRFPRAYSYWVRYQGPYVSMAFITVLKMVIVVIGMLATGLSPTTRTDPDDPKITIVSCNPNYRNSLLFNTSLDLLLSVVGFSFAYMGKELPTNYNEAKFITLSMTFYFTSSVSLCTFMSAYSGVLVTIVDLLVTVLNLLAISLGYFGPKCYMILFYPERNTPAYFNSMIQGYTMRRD
T1 sequence (Q7RTX0 21-852): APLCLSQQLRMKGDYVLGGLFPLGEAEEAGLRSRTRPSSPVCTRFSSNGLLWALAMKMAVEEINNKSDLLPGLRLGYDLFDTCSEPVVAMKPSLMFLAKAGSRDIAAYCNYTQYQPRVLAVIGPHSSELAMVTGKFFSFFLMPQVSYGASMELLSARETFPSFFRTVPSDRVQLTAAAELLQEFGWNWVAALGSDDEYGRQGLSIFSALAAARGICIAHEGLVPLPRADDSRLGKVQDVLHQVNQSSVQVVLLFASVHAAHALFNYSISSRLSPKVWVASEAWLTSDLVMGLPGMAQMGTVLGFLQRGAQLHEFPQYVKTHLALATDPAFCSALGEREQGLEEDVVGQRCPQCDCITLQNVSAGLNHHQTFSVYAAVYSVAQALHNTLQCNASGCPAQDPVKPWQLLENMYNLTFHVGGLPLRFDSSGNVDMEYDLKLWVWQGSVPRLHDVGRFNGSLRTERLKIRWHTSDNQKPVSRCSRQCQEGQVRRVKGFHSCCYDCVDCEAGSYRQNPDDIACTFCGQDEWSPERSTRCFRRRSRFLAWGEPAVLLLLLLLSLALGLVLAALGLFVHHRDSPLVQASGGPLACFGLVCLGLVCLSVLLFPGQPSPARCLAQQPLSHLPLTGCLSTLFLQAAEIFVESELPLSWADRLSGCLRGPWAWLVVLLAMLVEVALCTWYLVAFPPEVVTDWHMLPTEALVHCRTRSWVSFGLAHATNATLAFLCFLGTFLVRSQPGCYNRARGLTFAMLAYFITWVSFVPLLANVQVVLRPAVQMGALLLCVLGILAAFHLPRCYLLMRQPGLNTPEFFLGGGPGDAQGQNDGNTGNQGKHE
Description: Receptor-based assay: sweetener EC50 enhancement ratio with and without test compound. The test is classed as cell-based. The settings on record: for Sucrose Enhancement EC50 Ratio: sweetener sucrose; for Sucralose Enhancement EC50 Ratio: sweetener sucralose; for Fructose Enhancement EC50 Ratio: sweetener fructose. Summed up: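 Sweetener (sucrose, sucralose, fructose) EC50 measured alone and with 1, 3, 10 or 50 μM test compound. Enhancement ratio = EC50 without/with compound; A = >1 to <10, B = 10–20, C = >20.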

For `Cc1nc2cccc(O[C@H]3CC[C@H](Nc4ccccn4)CC3)c2c(N)c1C(=O)O` [Compound 701, 4-Amino-2-methyl-5-((trans-4-(pyridin-2-ylamino)cyclohexyl)oxy) quinoline-3-carboxylic acid], the “Sucrose Enhancement EC50 Ratio” value (1 μM test compound) was “A (an enhancement ratio of greater than 1 and less than 10)”; the “Sucrose Enhancement EC50 Ratio” value (3 μM test compound) is listed as “B (an enhancement ratio from 10 to 20)”; the “Sucrose Enhancement EC50 Ratio” value (10 μM test compound) is “B (an enhancement ratio from 10 to 20)”. In addition, the “Sucralose Enhancement EC50 Ratio” value (3 μM test compound) is “C (an enhancement ratio greater than 20)” and the “Sucralose Enhancement EC50 Ratio” value (10 μM test compound) is given as “C (an enhancement ratio greater than 20)”.

Take `Cc1cc(C)nc(N[C@H]2CC[C@H](Oc3cccc4nc(C)c(C(=O)O)c(N)c34)CC2)n1` [Compound 702, 4-Amino-5-((trans-4-((4,6-dimethylpyrimidin-2-yl)amino)cyclohexyl)oxy)-2-methylquinoline-3-carboxylic (HCl)]: the “Sucrose Enhancement EC50 Ratio” value by setting is: (1 μM test compound) “A (an enhancement ratio of greater than 1 and less than 10)”; (3 μM test compound) “A (an enhancement ratio of greater than 1 and less than 10)”; (10 μM test compound) “A (an enhancement ratio of greater than 1 and less than 10)”. Also, the “Sucralose Enhancement EC50 Ratio” value was “A (an enhancement ratio of greater than 1 and less than 10)” (3 μM test compound); “B (an enhancement ratio from 10 to 20)” (10 μM test compound).

Regarding `COc1cnc(N[C@H]2CC[C@H](Oc3cccc4nc(C)c(C(=O)O)c(N)c34)CC2)nc1` [Compound 703], the “Sucrose Enhancement EC50 Ratio” value was “A (an enhancement ratio of greater than 1 and less than 10)” (1 μM test compound); “A (an enhancement ratio of greater than 1 and less than 10)” (3 μM test compound); “B (an enhancement ratio from 10 to 20)” (10 μM test compound). Also, the “Sucralose Enhancement EC50 Ratio” value is reported as “B (an enhancement ratio from 10 to 20)” (3 μM test compound) and “B (an enhancement ratio from 10 to 20)” (10 μM test compound). The “Fructose Enhancement EC50 Ratio” value (10 μM test compound) was “A (an enhancement ratio of greater than 1 and less than 10)”.

With `Cc1nc2cccc(O[C@H]3CC[C@H](Nc4ncc(F)cn4)CC3)c2c(N)c1C(=O)O` [Compound 704], the “Sucrose Enhancement EC50 Ratio” value is, setting by setting: (1 μM test compound) “A (an enhancement ratio of greater than 1 and less than 10)”; (3 μM test compound) “A (an enhancement ratio of greater than 1 and less than 10)”; (10 μM test compound) “B (an enhancement ratio from 10 to 20)”. Moreover, the “Sucralose Enhancement EC50 Ratio” value runs as follows: (3 μM test compound) “B (an enhancement ratio from 10 to 20)”; (10 μM test compound) “B (an enhancement ratio from 10 to 20)”. Also, the “Fructose Enhancement EC50 Ratio” value (10 μM test compound) is “A (an enhancement ratio of greater than 1 and less than 10)”; the “Fructose Enhancement EC50 Ratio” value (50 μM test compound) was “A (an enhancement ratio of greater than 1 and less than 10)”.

For `Cc1cnc(N[C@H]2CC[C@H](Oc3cccc4nc(C)c(C(=O)O)c(N)c34)CC2)nc1` [Compound 705], the “Sucrose Enhancement EC50 Ratio” value is “A (an enhancement ratio of greater than 1 and less than 10)” (1 μM test compound); “B (an enhancement ratio from 10 to 20)” (3 μM test compound); “B (an enhancement ratio from 10 to 20)” (10 μM test compound). Also, the “Sucralose Enhancement EC50 Ratio” value was “A (an enhancement ratio of greater than 1 and less than 10)” (3 μM test compound); “B (an enhancement ratio from 10 to 20)” (10 μM test compound). The “Fructose Enhancement EC50 Ratio” value (10 μM test compound) is “A (an enhancement ratio of greater than 1 and less than 10)”.

Consider `CCCc1cnc(N[C@H]2CC[C@H](Oc3cccc4nc(C)c(C(=O)O)c(N)c34)CC2)nc1` [Compound 706], for which the “Sucrose Enhancement EC50 Ratio” value (1 μM test compound) was “A (an enhancement ratio of greater than 1 and less than 10)”; the “Sucrose Enhancement EC50 Ratio” value (3 μM test compound) was “A (an enhancement ratio of greater than 1 and less than 10)”; the “Sucrose Enhancement EC50 Ratio” value (10 μM test compound) was “B (an enhancement ratio from 10 to 20)”. The “Sucralose Enhancement EC50 Ratio” value (3 μM test compound) is “A (an enhancement ratio of greater than 1 and less than 10)”; the “Sucralose Enhancement EC50 Ratio” value (10 μM test compound) is “B (an enhancement ratio from 10 to 20)”. Besides, the “Fructose Enhancement EC50 Ratio” value is, setting by setting: (10 μM test compound) “A (an enhancement ratio of greater than 1 and less than 10)”; (50 μM test compound) “A (an enhancement ratio of greater than 1 and less than 10)”.

Consider `COc1ccnc(N[C@H]2CC[C@H](Oc3cccc4nc(C)c(C(=O)O)c(N)c34)CC2)n1` [Compound 707], for which the “Sucrose Enhancement EC50 Ratio” value by setting is: (1 μM test compound) “A (an enhancement ratio of greater than 1 and less than 10)”; (3 μM test compound) “A (an enhancement ratio of greater than 1 and less than 10)”; (10 μM test compound) “B (an enhancement ratio from 10 to 20)”. Besides, the “Sucralose Enhancement EC50 Ratio” value runs as follows: (3 μM test compound) “A (an enhancement ratio of greater than 1 and less than 10)”; (10 μM test compound) “B (an enhancement ratio from 10 to 20)”. Besides, the “Fructose Enhancement EC50 Ratio” value is “A (an enhancement ratio of greater than 1 and less than 10)” (10 μM test compound); “A (an enhancement ratio of greater than 1 and less than 10)” (50 μM test compound).

Consider `Cc1ccnc(N[C@H]2CC[C@H](Oc3cccc4nc(C)c(C(=O)O)c(N)c34)CC2)n1` [Compound 708], for which the “Sucrose Enhancement EC50 Ratio” value was “A (an enhancement ratio of greater than 1 and less than 10)” (1 μM test compound); “C (an enhancement ratio greater than 20)” (3 μM test compound); “C (an enhancement ratio greater than 20)” (10 μM test compound). Besides, the “Sucralose Enhancement EC50 Ratio” value (3 μM test compound) was “C (an enhancement ratio greater than 20)” and the “Sucralose Enhancement EC50 Ratio” value (10 μM test compound) is “C (an enhancement ratio greater than 20)”. Besides, the “Fructose Enhancement EC50 Ratio” value (10 μM test compound) was “A (an enhancement ratio of greater than 1 and less than 10)”.

On to `CCCc1ccnc(N[C@H]2CC[C@H](Oc3cccc4nc(C)c(C(=O)O)c(N)c34)CC2)n1` [Compound 709], for which the “Sucrose Enhancement EC50 Ratio” value runs as follows: (1 μM test compound) “A (an enhancement ratio of greater than 1 and less than 10)”; (3 μM test compound) “A (an enhancement ratio of greater than 1 and less than 10)”; (10 μM test compound) “A (an enhancement ratio of greater than 1 and less than 10)”. Also, the “Sucralose Enhancement EC50 Ratio” value by setting is: (3 μM test compound) “A (an enhancement ratio of greater than 1 and less than 10)”; (10 μM test compound) “A (an enhancement ratio of greater than 1 and less than 10)”.

Consider `COc1cc(OC)nc(N[C@H]2CC[C@H](Oc3cccc4nc(C)c(C(=O)O)c(N)c34)CC2)n1` [Compound 710], for which the “Sucrose Enhancement EC50 Ratio” value reads like this: (1 μM test compound) “A (an enhancement ratio of greater than 1 and less than 10)”; (3 μM test compound) “A (an enhancement ratio of greater than 1 and less than 10)”; (10 μM test compound) “B (an enhancement ratio from 10 to 20)”. Further, the “Sucralose Enhancement EC50 Ratio” value (3 μM test compound) was “A (an enhancement ratio of greater than 1 and less than 10)”; the “Sucralose Enhancement EC50 Ratio” value (10 μM test compound) is reported as “B (an enhancement ratio from 10 to 20)”. The “Fructose Enhancement EC50 Ratio” value runs as follows: (10 μM test compound) “A (an enhancement ratio of greater than 1 and less than 10)”; (50 μM test compound) “A (an enhancement ratio of greater than 1 and less than 10)”.
